From patent US20040142979A1, “Heteroarylsulfonylmethyl hydroxamic acids and amides and their use as protease inhibitors” (priority 2002, published 2004)

Experiments:
Assay type in all cases: biochemical
Settings in all cases: human recombinant enzyme; 4 μM substrate (A); apparent Ki without substrate correction
[1] = biological target: T1, Human recombinant MMP-2 (Homo sapiens, UniProt P08253); assay: In vitro MMP inhibition analysis (fluorogenic peptide substrate), MMP-2
T1 construct: made in house; host or cells: MMP-2-transfected p2AHT2 cells
T1 sequence (P08253 110-660): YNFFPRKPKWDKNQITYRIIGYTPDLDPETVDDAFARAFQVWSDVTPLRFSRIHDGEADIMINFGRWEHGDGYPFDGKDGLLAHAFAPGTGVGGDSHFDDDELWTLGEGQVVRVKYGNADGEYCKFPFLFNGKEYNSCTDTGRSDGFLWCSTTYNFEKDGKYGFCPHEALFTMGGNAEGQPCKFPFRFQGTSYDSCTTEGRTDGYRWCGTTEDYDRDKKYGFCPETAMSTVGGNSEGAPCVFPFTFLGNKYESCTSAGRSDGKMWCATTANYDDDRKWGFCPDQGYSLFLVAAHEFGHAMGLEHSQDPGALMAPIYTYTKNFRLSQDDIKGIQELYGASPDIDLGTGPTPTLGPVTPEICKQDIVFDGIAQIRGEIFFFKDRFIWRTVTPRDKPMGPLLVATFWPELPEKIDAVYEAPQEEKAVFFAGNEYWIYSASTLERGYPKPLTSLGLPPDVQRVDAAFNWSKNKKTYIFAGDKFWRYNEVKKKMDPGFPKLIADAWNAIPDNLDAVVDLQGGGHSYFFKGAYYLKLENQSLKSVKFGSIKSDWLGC
Procedure: (§1) Several compounds and salts were analyzed in an in vitro assay to determine their ability to inhibit the MMP cleavage of peptide substrates. Inhibition constant (Ki) were calculated from the assayed compound-MMP interactions.
(§2) Human recombinant MMP-1, MMP-2, MMP-9, MMP-13, and MMP-14 were used in this assay. All enzymes were prepared in Assignee's laboratories following usual laboratory procedures. Protocols for the preparation and use of these enzymes are available in the scientific literature. See, e.g., Enzyme Nomenclature (Academic Press, San Diego, Calif., 1992) (and the citations therein). See also, Freije et al., J. Biol. Chem., 269(24), 16766-16773 (1994).
The MMP-2 proenzyme was purified by gelatin Sepharose chromatography from MMP-2- transfected p2AHT2 cells provided by Dr. Gregory Goldberg of Washington University (St. Louis, Mo.).
(§3) All MMPs were activated using 4-aminophenylmercuric acetate (“APMA”, Sigma Chemical, St. Louis, Mo.) or trypsin. MMP-9 also was activated using human recombinant MMP-3 (purified in Assignee's laboratory following standard cloning and purification techniques).
(§4) The following fluorogenic, methoxycoumarin-containing polypeptide substrate (A) was used in the MMP inhibition assays:
(§5) MCA-ArgProLeuGlyLeuDpaAlaArgGluArgNH2 (A)
(§6) “MCA” is 7-methoxycoumarin-4-yl acetyl. Substrate (A) was prepared Assignee's laboratory. In the absence of MMP inhibitory activity, the substrate is cleaved at the Gly-Leu peptide bond. This cleavage separates the highly fluorogenic peptide from the 2,4-dinitrophenyl quencher, thus resulting in increase of fluorescent intensity.
(§7) The stock solutions of the assayed compounds and salts were prepared in 1% dimethyl sulfoxide (DMSO). These stock solutions were diluted in Buffer A (100 mM Tris-HCl, 100 mM NaCl, 10 mM CaCl2, 0.05% polyoxyethylene 23 lauryl ether, pH 7.5) to obtain solutions with different compound concentrations, i.e., assay solutions with different concentrations of the assayed MMP inhibitory compound. The experiment controls contained the same amount of Buffer A/DMSO as the assayed sample, but contained none of the tested compound or salt.
(§8) The assays from which the Ki determinations were made were performed as follows. The assayed compound samples were incubated in separate wells of untreated white polystyrene plates (Nunc Nalgene International, Rochester, N.Y.), and analyzed on a Tecan SpectraFlour Plus plate reader. The excitation wavelength was 330 nm, and the emission wavelength -420 nm. All samples (assayed compounds and controls) were incubated in separate plate wells at room temperature for 1 hr in the presence of 4 μM of MMP substrate (A). In the absence of MMP inhibitory activity, substrate (A) was cleaved at the Gly-Leu bond resulting in an increase of relative fluorescence. Inhibition was observed as a reduced rate of this increase in relative fluorescence. […] This protocol is a modification of method by Knight et al., FEBS Lett., 296(3), 263-266 (1992). Apparent inhibitory constants were determined by non-linear regression of reaction velocity as a function of inhibitor and enzyme concentration using Morrison's equation, as described by Kuzmic, P., et al., Anal. Biochem., 286(1):45-50 (2000). Modifications were made in the non-linear regression method to allow a common control reaction rate and effective enzyme concentration to be shared between all dose-response relationships on a given assay plate. Since the substrate concentration was chosen to be at or below the Km, the apparent Ki's from this analysis were reported as Ki's without correction for the influence of substrate.
(§9) The above protocols were used to determine MMP inhibition Ki constants for the compounds in Examples 1, 2, and 4-42 above. All Ki values in Table 3 are given in nM units.

[2] = biological target: T2, Human recombinant MMP-9 (Homo sapiens, UniProt P14780); assay: In vitro MMP inhibition analysis (fluorogenic peptide substrate), MMP-9
T2 construct: made in house; host or cells: MMP-9-transfected HT1080 cells (spent media)
T2 sequence (P14780 107-707 limits assumed): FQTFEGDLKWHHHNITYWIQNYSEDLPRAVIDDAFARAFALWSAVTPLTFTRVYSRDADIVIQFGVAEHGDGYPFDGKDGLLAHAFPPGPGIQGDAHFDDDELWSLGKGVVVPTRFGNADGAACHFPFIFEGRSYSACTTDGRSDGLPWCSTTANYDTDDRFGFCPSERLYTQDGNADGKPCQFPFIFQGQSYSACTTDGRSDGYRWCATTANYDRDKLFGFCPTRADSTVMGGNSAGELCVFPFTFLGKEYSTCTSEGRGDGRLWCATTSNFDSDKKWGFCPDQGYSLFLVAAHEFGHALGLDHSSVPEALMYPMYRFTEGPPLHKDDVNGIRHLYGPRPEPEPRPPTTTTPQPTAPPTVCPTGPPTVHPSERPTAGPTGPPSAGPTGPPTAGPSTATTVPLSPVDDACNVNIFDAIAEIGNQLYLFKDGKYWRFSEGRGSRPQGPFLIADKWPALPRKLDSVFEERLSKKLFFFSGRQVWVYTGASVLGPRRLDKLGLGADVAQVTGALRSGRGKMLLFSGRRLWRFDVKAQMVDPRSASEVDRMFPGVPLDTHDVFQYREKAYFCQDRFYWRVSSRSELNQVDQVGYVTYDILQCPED
Procedure: as §1, §2
The MMP-9 proenzyme was purified by gelatin Sepharose chromatography from spent media of MMP-9-transfected HT1080 cells provided by Dr. Howard Welgus of Washington University (St. Louis, Mo.).
as §3, §4, §5, §6, §7, §8, §9

[3] = biological target: T3, Human recombinant MMP-1 (Homo sapiens, UniProt P03956); assay: In vitro MMP inhibition analysis (fluorogenic peptide substrate), MMP-1
T3 construct: made in house; host or cells: MMP-1-transfected HT-1080 cells (spent media)
T3 sequence (P03956 100-469): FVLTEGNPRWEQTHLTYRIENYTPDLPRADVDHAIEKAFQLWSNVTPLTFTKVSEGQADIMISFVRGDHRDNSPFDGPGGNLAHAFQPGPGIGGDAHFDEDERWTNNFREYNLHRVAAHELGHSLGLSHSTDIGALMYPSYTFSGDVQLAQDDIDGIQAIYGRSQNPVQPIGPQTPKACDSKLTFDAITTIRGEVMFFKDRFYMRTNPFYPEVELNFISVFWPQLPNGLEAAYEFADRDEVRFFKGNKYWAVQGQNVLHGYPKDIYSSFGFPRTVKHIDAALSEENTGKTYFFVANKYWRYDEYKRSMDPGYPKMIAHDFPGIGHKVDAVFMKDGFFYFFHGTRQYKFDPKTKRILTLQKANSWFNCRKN
Procedure: as §1, §2
The MMP-1 proenzyme was purified from the spent media of MMP-1-transfected HT-1080 cells provided by Dr. Harold Welgus of Washington University (St. Louis, Mo.). The protein was purified on a zinc chelating column.
as §3, §4, §5, §6, §7, §8, §9

Ki [1] | Ki [2] | Ki [3] | SMILES
895 nM | 1290 nM | > 10000 nM | CN(C(=O)c1ccc(-c2ccc(S(=O)(=O)C3(C(=O)NO)CCOCC3)cn2)cc1)c1ccccc1 [Example 78]
0.222 nM | 1.06 nM | 1240 nM | O=C(NO)C1(S(=O)(=O)c2ccc(-c3ccc(OC(F)(F)C(F)F)cc3)nc2)CCOCC1 [Example 48]
10.3 nM | 14.1 nM | 2840 nM | O=C(NO)C1(S(=O)(=O)c2ccc3nc(-c4ccc(F)c(F)c4)sc3c2)CCOCC1 [Example 60]
305 nM | 7770 nM | > 10000 nM | O=C(Cc1ccc(-c2ccc(S(=O)(=O)C3(C(=O)NO)CCOCC3)cn2)cc1)N1CCCCC1 [Example 72]
26.3 nM | 428 nM | 4200 nM | CCCCNC(=O)c1ccc(-c2ccc(S(=O)(=O)C3(C(=O)NO)CCOCC3)cn2)cc1 [Example 76]
2.01 nM | 5.09 nM | > 1250 nM | O=C(NO)C1(S(=O)(=O)c2ccc3nc(-c4ccc(Cl)s4)sc3c2)CCOCC1 [Example 59]
91.8 nM | 2220 nM | > 10000 nM | CCCCNC(=O)Cc1ccc(-c2ccc(S(=O)(=O)C3(C(=O)NO)CCOCC3)cn2)cc1 [Example 73]
668 nM | 894 nM | > 10000 nM | CC(C)CN(C)C(=O)c1ccc(-c2ccc(S(=O)(=O)C3(C(=O)NO)CCOCC3)cn2)cc1 [Example 82]
2.76 nM | 0.471 nM | > 10000 nM | O=C(NO)C1(S(=O)(=O)c2ccc3nc(-c4ccc(SC(F)(F)F)cc4)sc3c2)CCOCC1 [Example 67]
29.4 nM | 133 nM | > 10000 nM | O=C(NO)C1(S(=O)(=O)c2ccc(-c3ccc(C(F)(F)F)cn3)s2)CCOCC1 [Example 50]
2.08 nM | 8.96 nM | > 10000 nM | CCCCCc1ccc(-c2ccc(S(=O)(=O)C3(C(=O)NO)CCOCC3)cn2)cc1 [Example 45]
2060 nM | 3400 nM | > 10000 nM | CN(C(=O)c1ccc(-c2ccc(S(=O)(=O)C3(C(=O)NO)CCOCC3)cn2)cc1)c1ccc(OC(F)(F)F)cc1 [Example 81]
2.07 nM | 0.636 nM | 6530 nM | O=C(NO)C1(S(=O)(=O)c2ccc3nc(-c4ccc(OC(F)(F)F)cc4)sc3c2)CCOCC1 [Example 51]
14.8 nM | 21.5 nM | > 10000 nM | O=C(NO)C1(S(=O)(=O)c2ccc3nc(-c4ccc(F)cc4F)sc3c2)CCOCC1 [Example 61]
46.6 nM | 2040 nM | > 10000 nM | O=C(NO)C1(S(=O)(=O)c2ccc3c(c2)sc2nc(-c4ccccc4)cn23)CCOCC1 [Example 83]
151 nM | 799 nM | > 10000 nM | O=C(NO)C1(S(=O)(=O)c2ccc3nc(-n4cnc(-c5ccccc5)c4)sc3c2)CCOCC1 [Example 64]
